Earlier results as cited in patent US20220370477A1, “Solid Oral Dosage Forms Of Dexamethasone” (Jubilant Generics Limited, priority 2021, published 2022).
“Also recorded” adds a separate entry of the source. Like-named read-outs stand apart in the source and are kept apart here.

C[C@@H]1C[C@H]2[C@@H]3CCC4=CC(=O)C=C[C@]4(C)[C@@]3(F)[C@@H](O)C[C@]2(C)[C@@]1(O)C(=O)CO [Dexamethasone, 9-fluoro-11β,17,21trihydroxy-16α-methylpregna-1,4-diene-3 ,20-dione]
Solubility (in acetone): sparingly soluble
Solubility (in dichloromethane): slightly soluble
Solubility (in ethanol): sparingly soluble
Solubility (in methanol): sparingly soluble
Solubility (in water): practically insoluble; also recorded: poorly water-soluble
